{
  "source": "patent US9694045B2",
  "about": "“Pharmaceutical composition for preventing or treating inflammatory diseases comprising trachelospermi caulis extract and paeonia suffruticosa andrews extract, and method for preparing the same” (SINIL PHARMACEUTICAL CO., LTD., priority 2010, dated 2017)",
  "format_in_all_cases": "in vivo",
  "key": {"[1]": {"test_system": "IL-2", "assay": "IL-2 production of splenocytes of arthritis-induced mice (ELISA)", "conditions": "positive control group (bucillamine 300 mg/kg oral)", "method": "(§1) Bovine type II collagen and adjuvant were separately emulsified, and each emulsion was subcutanesously injected at a dose of 100 μg to the tail. Three weeks later, a booster was achieved by the intraperitoneal injection of 100 μg of bovine type II collagen to induce arthritis. Immediately after the induction, drugs were administered for 21 days and their inhibitory activity against arthritis was measured. The mice were orally administered with suspensions of indomethacin (1 mg/kg), meloxicam (4 mg/kg), bucillamine (300 mg/kg), and the mixture of extracts from Trachelospermi Caulis and Paeonia Suffruticosa Andrews (SI-000902), every day. For comparison, a normal group (arthritis not induced) and a control (administered with vehicle) were employed. The extract mixture (solid extract, soft extract) was dispersed at a concentration of 20, 50, 100, 200 and 400 mg/kg in a 1% carboxymethyl-cellulose sodium solution before the oral administration. Severity of edema was measured in the four feet of each mouse by blind test with the naked eye every three days and evaluated as grades 0 to 4. The spleen was aseptically excised from arthritis-induced mice and used to give a cell suspension. […] The level of the cytokines IFN-γ and IL-2 in the medium was measured using an ELISA kit (R&D systems) to examine the inhibitory effect of the extract mixture on the cytokines."}, "[2]": {"test_system": "IFN-γ", "assay": "IFN-γ production of splenocytes of arthritis-induced mice (ELISA)", "conditions": "positive control group (bucillamine 300 mg/kg oral)", "method": "as §1"}, "[3]": {"test_system": "splenocytes of arthritis-induced mice", "assay": "Splenocyte proliferation in arthritis-induced mice (BrdU ELISA)", "conditions": "Mus musculus, positive control group (bucillamine 300 mg/kg oral)", "method": "Bovine type II collagen and adjuvant were separately emulsified, and each emulsion was subcutanesously injected at a dose of 100 μg to the tail. Three weeks later, a booster was achieved by the intraperitoneal injection of 100 μg of bovine type II collagen to induce arthritis. Immediately after the induction, drugs were administered for 21 days and their inhibitory activity against arthritis was measured. The mice were orally administered with suspensions of indomethacin (1 mg/kg), meloxicam (4 mg/kg), bucillamine (300 mg/kg), and the mixture of extracts from Trachelospermi Caulis and Paeonia Suffruticosa Andrews (SI-000902), every day. For comparison, a normal group (arthritis not induced) and a control (administered with vehicle) were employed. The extract mixture (solid extract, soft extract) was dispersed at a concentration of 20, 50, 100, 200 and 400 mg/kg in a 1% carboxymethyl-cellulose sodium solution before the oral administration. Severity of edema was measured in the four feet of each mouse by blind test with the naked eye every three days and evaluated as grades 0 to 4. The spleen was aseptically excised from arthritis-induced mice, minced and filtered through a filter to separate and collect only the cells. […] After incubation, the cells were fixed, and suppressive activity against splenocyte proliferation was determined using a BrdU ELISA cell proliferation assay kit (Roche)."}},
  "data": [
    {"smiles": "CC(C)(S)C(=O)N[C@@H](CS)C(=O)O", "note": "[bucillamine]", "values": [
      {"measurement": "suppression of IL-2", "setting": "[1]", "value": 39.1, "unit": "%"},
      {"measurement": "suppression of IFN-γ", "setting": "[2]", "value": 88.5, "unit": "%"},
      {"measurement": "inhibition at 300 mg/kg", "setting": "[3]", "value": 51.1, "unit": "%"}
    ]}
  ]
}
